Laboratory results taken from patent US11596639B2, “Substituted indole Mcl-1 inhibitors” (Vanderbilt University, priority 2016, dated 2023).
Read-outs that look alike come from different tables or passages of the source.

Tests used:
[1] = test system: H929 human cancer cell lines; assay: Cellular viability / proliferation (Cell TiterGlo, 72 h); type: cell-based
Procedure, shortened: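 H929 cells plated at 1,000/well in 10% FBS medium received a 2-fold serial compound dilution (top 50 μM, DMSO <1%) 24 h later. After 72 h, viability was read by CellTiter-Glo luminescence. IC50 came from a four-parameter fit.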

Mcl-1 = Mcl-1 (Homo sapiens (Human), UniProt Q07820); assay: TR-FRET binding assay, FITC-Bak peptide and MBP-tagged Mcl-1; details: read-out: Ki for Inhibition of Mcl-1 by TR-FRET assay
Sequence of Mcl-1 (Q07820 172-327): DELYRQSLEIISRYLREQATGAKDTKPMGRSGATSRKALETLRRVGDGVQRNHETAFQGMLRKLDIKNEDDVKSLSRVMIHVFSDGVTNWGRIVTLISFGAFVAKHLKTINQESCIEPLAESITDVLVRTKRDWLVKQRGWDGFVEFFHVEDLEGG
Experimental: Compounds are diluted in DMSO in a 16-point, semilog serial dilution scheme. […] The plate was mixed and incubated for 3 hours at room temperature. […] TR-FRET signal is plotted and IC50 and Ki values are calculated in the same manner as the fluorescence polarization anisotropy based competition assays.

[2] = Homo sapiens, NCI-H929, 72 h, read-out: GI50 on cellular proliferation of H929 human cancer cell lines, H929 cells, 72 h, Cell TiterGlo, 10% FBS
[3] = H929 cells, 72 h, Cell TiterGlo, 10% FBS, read-out: GI50 on cellular proliferation of H929 human cancer cell lines

Row | Compound | GI50 [1, 2] [nM] | Ki (Mcl-1) [nM] | GI50 [1, 3] [nM]
1 | COCCn1cc(C(=O)O)c2cc(OCCN(C)C)cc(N3C[C@@H](C)n4c(c(CCCOc5cc(C)c(Cl)c(C)c5)c5ccc(Cl)c(-c6c(C)nn(C)c6C)c54)C3=O)c21 [Example 671, (R)-7-(7-chloro-10-(3-(4-chloro-3,5-dimethylphenoxy)propyl)-4-methyl-1-oxo-6-(1,3,5-trimethyl-1H-pyrazol-4-yl)-3,4-dihydropyrazino[1,2-a]indol-2(1H)-yl)-5-(2-(dimethylamino)ethoxy)-1-(2-methoxyethyl)-1H-indole-3-carboxylic acid] | 890 | 0.32 | –
2 | Cc1cc(OCCCc2c3n(c4c(-c5c(C)nn(C)c5C)c(Cl)ccc24)[C@H](C)CN(c2cn(CCN4CCOCC4)c4ccc(-c5ncn(-c6ncccn6)n5)cc24)C3=O)cc(C)c1Cl [Example 720, (R)-7-Chloro-10-(3-(4-chloro-3,5-dimethylphenoxy)propyl)-4-methyl-2-(1-(2-morpholinoethyl)-5-(1-(pyrimidin-2-yl)-1H-1,2,4-triazol-3-yl)-1H-indol-3-yl)-6-(1,3,5-trimethyl-1H-pyrazol-4-yl)-3,4-dihydropyrazino[1,2-a]indol-1(2H)-one] | 220 | 0.51 | –
3 | COCCn1cc(N2C[C@@H](C)n3c(c(CCCOc4cc(C)c(Cl)c(C)c4)c4ccc(Cl)c(-c5c(C)nn(C)c5C)c43)C2=O)c2cc(-c3ncn(C)n3)ccc21 [Example 524, (R)-7-Chloro-10-(3-(4-chloro-3,5-dimethylphenoxy)propyl)-2-(1-(2-methoxyethyl)-5-(1-methyl-1H-1,2,4-triazol-3-yl)-1H-indol-3-yl)-4-methyl-6-(1,3,5-trimethyl-1H-pyrazol-4-yl)-3,4-dihydropyrazino[1,2-a]indol-1(2H)-one] | 220 | 0.28 | –
4 | COc1ccnc(Cn2c(C(=O)O)cc3c(OC)ccc(N4C[C@@H](C)n5c(c(CCCOc6cc(C)c(Cl)c(C)c6)c6ccc(Cl)c(-c7c(C)ncnc7C)c65)C4=O)c32)c1 [Example 476, (R)-7-(7-Chloro-10-(3-(4-chloro-3,5-dimethylphenoxy)propyl)-6-(4,6-dimethylpyrimidin-5-yl)-4-methyl-1-oxo-3,4-dihydropyrazino[1,2-a]indol-2(1H)-yl)-4-methoxy-1-((4-methoxypyridin-2-yl)methyl)-1H-indole-2-carboxylic acid] | < 200 | < 0.2 | –
5 | COCCOc1cc(N2C[C@@H](C)n3c(c(CCCOc4cc(C)c(Cl)c(C)c4)c4ccc(Cl)c(-c5c(C)n[nH]c5C)c43)C2=O)c2c(c1)cc(C(=O)O)n2C [Example 716, (R)-7-(7-chloro-10-(3-(4-chloro-3,5-dimethylphenoxy)propyl)-6-(3,5-dimethyl-1H-pyrazol-4-yl)-4-methyl-1-oxo-3,4-dihydropyrazino[1,2-a]indol-2(1H)-yl)-5-(2-methoxyethoxy)-1-methyl-1H-indole-2-carboxylic acid] | 550 | < 0.2 | –
6 | Cc1cc(OCCCc2c3n(c4c(-c5c(C)nn(C)c5C)c(Cl)ccc24)[C@H](C)CN(c2cc(C(=O)O)cc4cc(C(=O)O)n(C)c24)C3=O)cc(C)c1Cl [Example 697, (R)-7-(7-chloro-10-(3-(4-chloro-3,5-dimethylphenoxy)propyl)-4-methyl-1-oxo-6-(1,3,5-trimethyl-1H-pyrazol-4-yl)-3,4-dihydropyrazino[1,2-a]indol-2(1H)-yl)-1-methyl-1H-indole-2,5-dicarboxylic acid] | 2000 | < 0.2 | –
7 | COCCOc1cc(N2C[C@@H](C)n3c(c(CCCOc4cc(C)c(Cl)c(C)c4)c4ccc(Cl)c(-c5c(C)ncnc5C)c43)C2=O)c2c(c1)cc(C(=O)O)n2C [Example 539, (R)-7-(7-Chloro-10-(3-(4-chloro-3,5-dimethylphenoxy)propyl)-6-(4,6-dimethylpyrimidin-5-yl)-4-methyl-1-oxo-3,4-dihydropyrazino[1,2-a]indol-2(1H)-yl)-5-(2-methoxyethoxy)-1-methyl-1H-indole-2-carboxylic acid] | < 200 | < 0.2 | –
8 | Cc1cc(OCCCc2c3n(c4c(-c5c(C)nn(C)c5C)c(Cl)ccc24)[C@H](C)CN(c2cn(C)c4ccc(-c5nc6cccc(C)n6n5)cc24)C3=O)cc(C)c1Cl [Example 696, (R)-7-Chloro-10-(3-(4-chloro-3,5-dimethylphenoxy)propyl)-4-methyl-2-(1-methyl-5-(5-methyl-[1,2,4]triazolo[1,5-a]pyridin-2-yl)-1H-indol-3-yl)-6-(1,3,5-trimethyl-1H-pyrazol-4-yl)-3,4-dihydropyrazino[1,2-a]indol-1(2H)-one] | 1400 | 1.1 | –
9 | CC(=O)N1CCN(c2cccc(Cn3c(C(=O)O)cc4cc(C)cc(N5C[C@@H](C)n6c(c(CCCOc7cc(C)c(Cl)c(C)c7)c7ccc(Cl)c(-c8c(C)nn(C)c8C)c76)C5=O)c43)n2)CC1 [Example 528, (R)-1-((6-(4-acetylpiperazin-1-yl)pyridin-2-yl)methyl)-7-(7-chloro-10-(3-(4-chloro-3,5-dimethylphenoxy)propyl)-4-methyl-1-oxo-6-(1,3,5-trimethyl-1H-pyrazol-4-yl)-3,4-dihydropyrazino[1,2-a]indol-2(1H)-yl)-5-methyl-1H-indole-2-carboxylic acid] | 870 | < 0.2 | –
10 | Cc1cc(OCCCc2c3n(c4c(-c5c(C)nn(C)c5C)c(Cl)ccc24)[C@H](C)CN(c2cc(C(=O)O)nc4ccccc24)C3=O)cc(C)c1Cl [Example 669, (R)-4-(7-chloro-10-(3-(4-chloro-3,5-dimethylphenoxy)propyl)-4-methyl-1-oxo-6-(1,3,5-trimethyl-1H-pyrazol-4-yl)-3,4-dihydropyrazino[1,2-a]indol-2(1H)-yl)quinoline-2-carboxylic acid] | 7600 | 1 | –
11 | COCCn1cc(C(=O)O)c2cccc(N3C[C@@H](C)n4c(c(CCCOc5cc(C)c(Cl)c(C)c5)c5ccc(Cl)c(-c6c(C)nn(C)c6C)c54)C3=O)c21 [Example 512, (R)-7-(7-Chloro-10-(3-(4-chloro-3,5-dimethylphenoxy)propyl)-4-methyl-1-oxo-6-(1,3,5-trimethyl-1H-pyrazol-4-yl)-3,4-dihydropyrazino[1,2-a]indol-2(1H)-yl)-1-(2-methoxyethyl)-1H-indole-3-carboxylic acid] | 220 | < 0.2 | –
12 | Cc1cc(OCCCc2c3n(c4c(-c5c(C)nn(C)c5C)c(Cl)ccc24)[C@H](C)CN(c2cn(CC4(C)COC4)c4ccc(C(=O)O)cc24)C3=O)cc(C)c1Cl [Example 616] | – | < 0.2 | 340
13 | COCCn1c(C(=O)O)cc2c(OC)ccc(N3C[C@@H](C)n4c(c(CCCOc5cc(C)c(Cl)c(C)c5)c5ccc(Cl)c(-c6c(C)ncnc6C)c54)C3=O)c21 [Example 493, (R)-7-(7-chloro-10-(3-(4-chloro-3,5-dimethylphenoxy)propyl)-6-(4,6-dimethylpyrimidin-5-yl)-4-methyl-1-oxo-3,4-dihydropyrazino[1,2-a]indol-2(1H)-yl)-4-methoxy-1-(2-methoxyethyl)-1H-indole-2-carboxylic acid] | < 200 | < 0.2 | –
14 | COCCn1c(C(=O)O)cc2cc(C)cc(N3C[C@@H](C)n4c(c(CCCOc5cc(C)c(Cl)c(C)c5)c5ccc(Cl)c(-c6c(C)nc(CN7CCOCC7)nc6C)c54)C3=O)c21 [Example 717, (R)-7-(7-chloro-10-(3-(4-chloro-3,5-dimethylphenoxy)propyl)-6-(4,6-dimethyl-2-(morpholinomethyl)pyrimidin-5-yl)-4-methyl-1-oxo-3,4-dihydropyrazino[1,2-a]indol-2(1H)-yl)-1-(2-methoxyethyl)-5-methyl-1H-indole-2-carboxylic acid] | < 200 | < 0.2 | –
15 | COCCn1cnc(-c2ccc3c(c2)c(N2C[C@@H](C)n4c(c(CCCOc5cc(C)c(Cl)c(C)c5)c5ccc(Cl)c(-c6c(C)nn(C)c6C)c54)C2=O)cn3C)n1 [Example 530, (R)-7-Chloro-10-(3-(4-chloro-3,5-dimethylphenoxy)propyl)-2-(S-(1-(2-methoxyethyl)-1H-1,2,4-triazol-3-yl)-1-methyl-1H-indol-3-yl)-4-methyl-6-(1,3,5-trimethyl-1H-pyrazol-4-yl)-3,4-dihydropyrazino[1,2-a]indol-1(2H)-one] | – | < 0.2 | 230
16 | CCOCCOc1cc(N2C[C@@H](C)n3c(c(CCCOc4cc(C)c(Cl)c(C)c4)c4ccc(Cl)c(-c5c(C)nn(C)c5C)c43)C2=O)c2c(c1)c(C(=O)O)cn2Cc1ccccn1 [Example 610, (R)-7-(7-chloro-10-(3-(4-chloro-3,5-dimethylphenoxy)propyl)-4-methyl-1-oxo-6-(1,3,5-trimethyl-1H-pyrazol-4-yl)-3,4-dihydropyrazino[1,2-a]indol-2(1H)-yl)-5-(2-ethoxyethoxy)-1-(pyridin-2-ylmethyl)-1H-indole-3-carboxylic acid] | 400 | < 0.2 | –
17 | Cc1cc(OCCCc2c3n(c4c(-c5c(C)nn(C)c5C)c(Cl)ccc24)[C@H](C)CN(c2c(C)ccc4cc(C(=O)O)n(C)c24)C3=O)cc(C)c1Cl [Example 726, (R)-7-(7-Chloro-10-(3-(4-chloro-3,5-dimethylphenoxy)propyl)-4-methyl-1-oxo-6-(1,3,5-trimethyl-1H-pyrazol-4-yl)-3,4-dihydropyrazino[1,2-a]indol-2(1H)-yl)-1,6-dimethyl-1H-indole-2-carboxylic acid] | 260 | < 0.2 | –
